Assay [1] has as its target T1, Electrophorus electricus AChE (EeAChE) (Electrophorus electricus, UniProt O42275).
T1 construct: purchased Sigma-Aldrich (Milan, Italy)
The assay can be described thus: Percent inhibition of EeAChE, Ellman's spectrophotometric method. Type of assay: biochemical. The protocol:
All other chemical and biological reagents and solvents used were of the highest analytical, commercially available grade. The water, utilized for the preparation of the phosphate buffer and of the compound solutions, was distilled and filtered on nylon membrane filters with a 0.2 μm pore size with the Millipore Filtration apparatus before each use. Micropipettes Labmate (BRAND Dig. 10–100 μL; Dig. 100–1000 μL; Dig. 0.1–2 μL) and Transferpette (HIGH TECH LAB LM200: 20–200 μL; LM5000: 1000–5000 μL) were used to collect the samples. The assays were carried out by a double beam UV–vis Lambda 40 Perkin Elmer spectrophotometer using optical polystyrene cuvettes (10 × 10 × 45 mm, 340–800 nm optical transparency); each measure was repeated at least in triplicate. […] The spectrophotometric method of Ellman[25] with minor modifications was used to evaluate the inhibition of ChEs. […] EeAChE and eqBChE were periodically tested to evaluate the effective enzymatic activity.
For all the synthesized compounds, the percentages of inhibition toward AChE of Electrophorus electricus (EeAChE) and equine BChE (eqBChE) were evaluated.
Three milliliters of a solution in 0.1 M phosphate buffer (pH = 7.4) containing DTNB (0.25 mM) and EeAChE (0.083 UmL^–1) or eqBChE (0.083 UmL^–1) was placed in a polystyrene cuvette of 1.0 cm path length; 1 μL of a […] With this solution, the blank was made. […] Each experiment was repeated at least in triplicate.
On the technique in general: Ellman's reagent forms a yellow product with free thiols.

Assay [2] concerns the target T1, Electrophorus electricus AChE (EeAChE). The assay can be described thus: Inhibition constant and mechanism vs EeAChE, Dixon's method. In kind it is biochemical. The protocol: . The recorded data were analyzed with the enzyme kinetic module of SigmaPlot to find the best fitting model of inhibition using the linear regression analysis. The reference kinetic models used in the regression analysis were competitive, noncompetitive, uncompetitive, and mixed. Each determination was repeated five times, and incorrect values were discarded to reduce the standard deviation within the limit of 5%. In this way, the regression lines obtained have a linear regression coefficient (R^2) higher than 0.95. Dixon’s plots of all tested compounds are reported in the Supporting Information (Figures S1–S12).
18, 22, 25, 26, 28, and 30 toward eqBChE). For each compound, a 500 μM stock solution was prepared in H2O/DMSO or in 10^–2 M HCl and diluted in water to prepare solutions of opportune concentrations to introduce in the cuvette volumes ranging from 30 to 100 μL, to obtain the desired final concentrations. The maximum amount of DMSO used for the preparation of the stock solution was calculated to have a DMSO content in cuvette <0.033%.
Three milliliters of 0.1 M phosphate buffer (pH = 7.4) containing DTNB (0.25 mM) and EeAChE (0.083 UmL^–1) or eqBChE (0.083 UmL^–1) was mixed with the opportune volume of the inhibitor solution to obtain a final inhibitor concentration in cuvette between 90 and 1800 nM. With this solution, the blank was made. […]. The absorbance variations were measured at 412 nm at 25 °C between 0.5 and 1.5 min.
To determine the inhibition constants (Ki) and the inhibition mechanisms, the rates of hydrolysis at three different concentrations of substrate in the presence of five different concentrations of inhibitor were measured.

In the next assay the target is T2, tau protein (Homo sapiens, UniProt P10636).
T2 construct: expressed in transfected cells; host or cells: E. coli BL21 (DE3) with pTARA and pRKT42
T2 sequence (P10636 1-441 isoform P10636-8): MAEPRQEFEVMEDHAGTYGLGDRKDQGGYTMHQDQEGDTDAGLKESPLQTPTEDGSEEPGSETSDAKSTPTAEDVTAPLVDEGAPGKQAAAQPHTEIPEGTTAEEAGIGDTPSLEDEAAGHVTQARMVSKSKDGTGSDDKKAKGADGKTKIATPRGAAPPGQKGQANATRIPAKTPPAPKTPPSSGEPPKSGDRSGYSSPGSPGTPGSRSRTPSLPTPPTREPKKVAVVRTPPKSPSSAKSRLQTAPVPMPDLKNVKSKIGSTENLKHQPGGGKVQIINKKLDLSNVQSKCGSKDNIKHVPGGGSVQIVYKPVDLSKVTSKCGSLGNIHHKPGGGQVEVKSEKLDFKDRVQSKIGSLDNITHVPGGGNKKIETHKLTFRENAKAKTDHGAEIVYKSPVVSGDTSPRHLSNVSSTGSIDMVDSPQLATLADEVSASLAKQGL
The assay can be described thus: Inhibition of tau aggregation in intact E. coli cells, thioflavin-S. Type of assay: cell-based, Escherichia coli. Conditions: [I] = 100 μM. The protocol:
The anti-aggregating effect of the tested compounds was monitored by a cell-based assay in intact Escherichia coli cells that overexpress either the Aβ42 peptide or tau protein, which upon overexpression form insoluble inclusion bodies that were stained with thioflavin-S, an amyloid specific dye.[36] The percentages of inhibition toward Aβ42 and tau aggregation were determined at an inhibitor concentration of 100 μM, and the obtained results are reported in Table 7.
E. coli BL21 (DE3) competent cells were transformed with pTARA containing the RNA-polymerase gene of T7 phage (T7RP) under the control of the promoter PBAD. E. coli BL21 (DE3) with pTARA competent cells were transformed with the pRKT42 vector encoding four repeats of the tau protein in two inserts. For overnight culture preparation, 10 mL of the M9 medium containing 0.5% of glucose, 50 μg·mL^–1 of ampicillin, and 12.5 μg·mL^–1 of chloramphenicol was inoculated with a colony of BL21 (DE3) bearing the plasmids to be expressed at 37 °C. For expression of the tau protein, the required volume of overnight culture to obtain 1:500 dilution was added to the fresh M9 minimal medium containing 0.5% of glucose, 50 μg·mL^–1 of ampicillin, 12.5 μg·mL^–1 of chloramphenicol, and 250 μM Th-S. The bacterial culture was grown at 37 °C and 250 rpm. When the cell density reached OD600 = 0.6, an amount of 980 μL of culture was transferred into Eppendorf tubes of 1.5 mL with 10 μL of each compound to be tested in DMSO and 10 μL of arabinose at 25%. The final concentration of the drug was fixed at 100 μM. The samples were grown overnight at 37 °C and 1400 rpm using a ThermoMixer (Eppendorf, Hamburg, Germany). As negative control (maximal presence of tau), the same amount of DMSO without the drug was added in the sample. In parallel, non-induced samples (in the absence of arabinose) were also prepared and used as positive controls (absence of tau). In addition, these samples were used to assess the potential intrinsic toxicity of the compounds and to confirm the correct bacterial growth.
Th-S (T1892) and other chemical reagents were purchased from Sigma (St. Louis, MO). The Th-S stock solution ([…]) was prepared in double-distilled water purified through a Milli-Q system (Millipore, USA). Th-S fluorescence and absorbance were tracked using a DTX 800 plate reader Multimode Detector equipped with a Multimode Analysis Software (Beckman-Coulter, USA). Filters of 430/35 and 485/20 nm were used for the excitation and emission wavelengths, respectively. Filters of 535/25 nm were also used for the absorbance determination. To normalize the Th-S fluorescence as a function of the bacterial concentration, OD600 was obtained using a Shimadzu UV-2401 PC UV–vis spectrophotometer (Shimadzu, Japan). Note that the fluorescence normalization was carried out considering as 100% the Th-S fluorescence of the bacterial cells expressing the peptide or protein in the absence of drug and 0% the Th-S fluorescence of the bacterial cells not expressing the peptide or protein. A minimum of five independent assays (with three replicates for assay) was performed for each tested compound. More assays were performed to obtain a SEM < 5% with a maximum of 10 independent assays.

Read-outs that look alike come from different tables or passages of the source.

T1 sequence (O42275 24-633): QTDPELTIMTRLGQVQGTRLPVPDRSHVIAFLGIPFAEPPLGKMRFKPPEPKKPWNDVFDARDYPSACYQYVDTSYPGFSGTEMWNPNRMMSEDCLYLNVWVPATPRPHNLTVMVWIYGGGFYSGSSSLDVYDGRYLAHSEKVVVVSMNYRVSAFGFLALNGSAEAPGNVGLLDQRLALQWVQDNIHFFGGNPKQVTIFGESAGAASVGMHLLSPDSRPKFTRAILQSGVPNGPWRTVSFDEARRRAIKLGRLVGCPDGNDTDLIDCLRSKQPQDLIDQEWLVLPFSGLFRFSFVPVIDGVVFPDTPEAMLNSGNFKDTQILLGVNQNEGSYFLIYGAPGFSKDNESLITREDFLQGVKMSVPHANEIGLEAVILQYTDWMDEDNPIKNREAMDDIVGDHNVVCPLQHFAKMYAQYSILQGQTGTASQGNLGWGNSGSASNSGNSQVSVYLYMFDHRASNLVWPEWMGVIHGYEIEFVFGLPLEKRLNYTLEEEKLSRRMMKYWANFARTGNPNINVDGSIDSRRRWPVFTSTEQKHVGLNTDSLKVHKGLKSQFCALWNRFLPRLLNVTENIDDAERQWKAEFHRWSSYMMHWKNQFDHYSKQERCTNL

A word on the inhibition: it is how much of the control response was suppressed. One may read the Ki as the dissociation constant of the complex between target and ligand, obtained from inhibition or displacement. Consider `COc1ccccc1CNCCCCCCNc1ccccn1` [Compound 28, N^1-(2-Methoxybenzyl)-N^6-(pyridin-2-yl)hexane-1,6-diamine], for which the inhibition at 9 µM is 58.6 ± 1.1% in assay [1] (read-out: % inhibition vs EeAChE ± SD (9 uM), 9 uM, supplement csv) and approximately 60% in assay [1] (read-out: % inhibition vs EeAChE ± SD, [I] 9 μM, 0.0833 U/mL enzyme, 100 μM acetylthiocholine). Besides, the inhibition at 90 µM in assay [1] (read-out: % inhibition vs EeAChE ± SD (90 uM), 90 uM, supplement csv) was determined as 74.3 ± 1.4%. Also, the inhibition at 900 µM in assay [1] (read-out: % inhibition vs EeAChE ± SD (900 uM), 900 uM, supplement csv) was 9 ± 1.6%. Further, the inhibition at 0.9 µM in assay [1] (read-out: % inhibition vs EeAChE ± SD, [I] 900 nM, 0.0833 U/mL enzyme, 100 μM acetylthiocholine) was found to be 9 ± 1.6%. Moreover, in assay [2] (Dixon's plot, best fitting model), the “inhibition mechanism on EeAChE” value is on record as “mixed”. In addition, in assay [2] (mixed inhibition, α > 1 free enzyme, α < 1 enzyme–substrate complex), the “α, EeAChE” value is 1.2. The Ki in assay [2] (three substrate and five inhibitor concentrations, read-out: Ki ± SD, EeAChE) came to 1320 ± 622 nM. Moreover, the inhibition at 100 µM against tau protein turned out to be 17%.

(Values after publication PMC8569681, “New Pyrimidine and Pyridine Derivatives as Multitarget Cholinesterase Inhibitors: Design, Synthesis, and In Vitro and In Cellulo Evaluation” (ACS Chemical Neuroscience, 2021).)
